In brackets after ≈: the same amount, converted by molar mass. Residues, ends and D or L forms follow the SMILES beside them. No end group written: not given here.
What was measured:
[1] = test system: S. typhimurium CCARM 8013; assay: MIC assay, drug-resistant strain; type: cell-based; details: Salmonella enterica, peptides in DMEM supplemented with 10% FBS
Source text: (§1) Escherichia coli (ATCC 25922) and S. aureus (ATCC 25923) were obtained from American Type Culture Collection (Manassas, VA, USA). Escherichia coli CCARM 1229, E. coli CCARM 1238, S. aureus CCARM 3089, S. aureus 3114, Salmonella typhimurium CCARM 8009, and S. typhimurium CCARM 8013 were obtained from the culture collection of antibiotic-resistant microbes at Seoul Women’s University, Republic of Korea. Pseudomonas aeruginosa 3547 and P. aeruginosa 4007 were resistant strains isolated from hospital patients with otitis media at Chonnam National University, Republic of Korea. The rifampin-resistant S. aureus PBEL 1 and vancomycin-resistant S. aureus PBEL 2 strains used in this study were generated from wild-type S. aureus (ATCC 25923).
(§2) Bacterial cells were incubated within culture media at 37 °C. The peptide antimicrobial activity was determined by the minimal inhibition concentration (MIC) assay. […] The samples were incubated for 18–24 h at 37 °C. After incubation, the minimum inhibitory concentrations (MICs) of the peptides were determined by measuring the absorbance at an optical density of 600 nm (OD600).

S. aureus CCARM 3114 = assay: MIC assay, drug-resistant strain; type: cell-based; details: Staphylococcus aureus, CCARM3114, peptides in DMEM supplemented with 10% FBS
Source text: as §1, §2

P. aeruginosa 3547 = assay: MIC assay, drug-resistant strain; type: cell-based; details: Pseudomonas aeruginosa; P. aeruginosa 3547, resistant isolate from otitis media patients; peptides in DMEM supplemented with 10% FBS
Source text: as §1, §2

S. aureus PBEL 2 = assay: MIC assay, drug-resistant strain; type: cell-based; details: Staphylococcus aureus, PBEL2; S. aureus PBEL 2, vancomycin-resistant (induced); peptides in DMEM supplemented with 10% FBS
Source text: as §1, §2

S. aureus PBEL 1 = assay: MIC assay, drug-resistant strain; type: cell-based; details: Staphylococcus aureus, PBEL1; S. aureus PBEL 1, rifampin-resistant (induced); peptides in DMEM supplemented with 10% FBS
Source text: as §1, §2

S. aureus CCARM 3089 = assay: MIC assay, drug-resistant strain; type: cell-based; details: Staphylococcus aureus, CCARM3089, peptides in DMEM supplemented with 10% FBS
Source text: as §1, §2

P. aeruginosa 4007 = assay: MIC assay, drug-resistant strain; type: cell-based; details: Pseudomonas aeruginosa; P. aeruginosa 4007, resistant isolate from otitis media patients; peptides in DMEM supplemented with 10% FBS
Source text: as §1, §2

[2] = test system: S. typhimurium CCARM 8009; assay: MIC assay, drug-resistant strain; type: cell-based; details: Salmonella enterica, peptides in DMEM supplemented with 10% FBS
Source text: as §1, §2

E. coli CCARM 1229 = assay: MIC assay, drug-resistant strain; type: cell-based; details: Escherichia coli, CCARM1229, peptides assayed in DMEM supplemented with 10% FBS
Source text: as §1, §2

E. coli CCARM 1238 = assay: MIC assay, drug-resistant strain; type: cell-based; details: Escherichia coli, CCARM1238, peptides assayed in DMEM supplemented with 10% FBS
Source text: as §1, §2

[3] = test system: PC/SM (2:1, w/w) small unilamellar vesicle (SUV) liposomes; assay: Binding assay with SUV liposomes by CD; details: 50 μM peptide, 300 μM SUVs, 10 mM HEPES buffer (pH 7.4), 25 °C, n = 3
Procedure: (§3) SUVs were prepared by drying of phosphatidylethanolamine (PE)/phosphatidyl glycerol (PG) (7:3, w/w) or phosphatidylcholine (PC)/sphingomyelin (SM) (2:1, w/w) under nitrogen, suspension by vortex mixing in 10 mM HEPES buffer (pH 7.4), and sonication. To prepare the SUVs, the lipid diffusions were sonicated in a bath-type sonicator for 20 min. Next, the suspensions of preparation vesicles were extruded 10 times through polycarbonate membranes ([…] pores). The concentration of SUV liposomes was determined using a standard phosphate assay. Circular dichroism (CD) spectra were recorded at 25 °C on a Jasco 810 spectropolarimeter. The peptide (50 μM) solution was added to 400 μL of 10 mM HEPES buffer or to 300 μM SUVs. At least three scans were acquired at 250 to 190 nm.

[4] = test system: PE/PG (7:3, w/w) small unilamellar vesicle (SUV) liposomes; assay: Binding assay with SUV liposomes by CD; details: 50 μM peptide, 300 μM SUVs, 10 mM HEPES buffer (pH 7.4), 25 °C, n = 3
Procedure: as §3

S. aureus ATCC 25923 = assay: Resistance development assay; type: cell-based, Staphylococcus aureus; details: S. aureus ATCC 25923, 12 passages from 1/2 MIC well, DMEM supplemented with 10% fetal bovine serum, MICs in duplicate
Procedure: Daily MICs were determined over 15 days for each agent using cells collected from the well determined as having half the MIC (1/2 MIC well). Briefly, cells from the 1/2 MIC well from the preceding day’s assay plate were resuspended and the OD600 was measured. The suspensions were then adjusted to achieve a bacterial concentration of 5 × 10^5 cfu/mL in DMEM supplemented with 10% fetal bovine serum and then mixed with each agent at the appropriate concentration. All MICs were determined in duplicate [26].

[5] = Reverse-phase HPLC retention time (hydrophobicity); type: physicochemical; details: mean retention time, Jupiter proteo C18 column (250 × 4.6 mm, 90 Å, 4 μm), 280 nm, used by the paper as measure of hydrophobicity
Procedure: Peptides were synthesized by using a 9-fluorenylmethoxycarbonyl (Fmoc) solid-phase method on Rink amide 4-methyl benzhydrylamine resin (Novabiochem, Darmstadt, Germany) (0.55 mmol/g) using a Liberty microwave peptide synthesizer (CEM, Matthews, NC, USA). To generate N-terminal fluorescently-labeled peptides, resin-bound peptides were treated with 20% (v/v) piperidine in dimethylformamide (DMF) to remove the Fmoc protection groups from the N-terminal amino acids. Rhodamine-SE dye was incubated with resin-bound peptide in DMF (3–4 eq.) containing 5% (v/v) diisopropylethylamine, and gently mixing for 24 h at room temperature in the dark. The resin was washed with dichloromethane (DCM). The peptides were cleaved from the corresponding resins, precipitated with ether, and extracted. The crude peptides were purified by reverse-phase preparative high-performance liquid chromatography (HPLC) on a Jupiter C18 column (250 × 21.2 mm, […], 300 Å; Phenomenex, Torrance, CA, USA) using a 0–60% acetonitrile gradient in water with 0.05% trifluoroacetic acid. The purity of the extracted peptide was then determined by analytical reversed-phase HPLC (wavelength of 280 nm) using a Jupiter proteo C18 column (250 × 4.6 mm, 90 Å, 4 μm). The molecular masses of the peptides were confirmed on a matrix-assisted laser desorption ionization mass spectrometer (Kratos Analytical, Kyoto, Japan).

[6] = test system: sheep red blood cells (sheep RBCs); assay: Hemolysis; type: cell-based; details: data overlapped with those of HPA3NT3-A2
Procedure: Fresh samples of sheep blood defibrinated cells (MBcell, Seoul, Korea) were centrifuged at 800× g and washed with phosphate-buffered saline (PBS) until the supernatant was clear. Serial dilutions (two-fold) of peptide prepared in PBS were plated, and sheep red blood cells (sheep RBCs) were added to a final concentration of 8% (v/v) in a 96-well plate. The samples were incubated for 1 h at 37 °C with gentle agitation and then centrifuged at 800× g for 10 min. The absorbance of the supernatant was measured at 414 nm; each measurement was performed in triplicate and the percentage hemolysis was calculated using Equation (1):% hemolysis = [(Abs414 in the peptide solution − Abs414 in PBS)/(Abs414 in 0.1% Triton-X100 − Abs414 in PBS)] × 100(1) where 100% hemolysis was defined as the absorbance of sheep RBCs containing 1% Triton X-100 and zero hemolysis was the value measured for sheep RBCs alone in PBS [10].

[7] = test system: HaCa T (human keratinocyte) cells; details: at 250 μM; cited from earlier work
Procedure: (§4) Previously, we determined the properties of HPA3NT3 as an antimicrobial peptide. This peptide has an amphipathic helical structure, strong antimicrobial activity, and cytotoxic ability at 250 μM (sheep RBCs, 68.4%; HaCaT cells, 85.1%). This peptide was designed to have low cytotoxicity at higher concentrations and was generated by substituting phenylalanine with alanine and lysine (F1A, F8A, and N13K) to enhance its antimicrobial activity by increasing the net positive charge.

[8] = test system: sheep red blood cells (sheep RBCs); details: at 250 μM; cited from earlier work
Procedure: as §4

Row | Compound | MIC [1] [µM] | MIC (S. aureus CCARM 3114) [µM] | MIC (P. aeruginosa 3547) [µM] | MIC (S. aureus PBEL 2) [µM] | MIC (S. aureus PBEL 1) [µM] | MIC (S. aureus CCARM 3089) [µM] | MIC (P. aeruginosa 4007) [µM] | MIC [2] [µM] | interaction with PC/SM liposome (CD) [3] | interaction with PE/PG liposome (CD) [4] | increase in MIC (resistance development) (S. aureus ATCC 25923) | Retention Time [5] [min] | further results
1 | CC1(C)S[C@@H]2[C@H](NC(=O)[C@H](N)c3ccccc3)C(=O)N2[C@H]1C(=O)O [Amp, ampicillin] | > 512 | > 512 | > 512 | > 512 | > 512 | > 512 | > 512 | > 512 | – | – | – | – | –
2 | O=C(O)c1cn(C2CC2)c2cc(N3CCNCC3)c(F)cc2c1=O [Cip, ciprofloxacin] | – | > 512 | > 512 | > 512 | > 512 | > 512 | > 512 | – | – | – | – | – | –
3 | CC[C@H]1OC(=O)[C@H](C)[C@@H](O[C@H]2C[C@@](C)(OC)[C@@H](O)[C@H](C)O2)[C@H](C)[C@@H](O[C@@H]2O[C@H](C)C[C@H](N(C)C)[C@H]2O)[C@](C)(O)C[C@@H](C)C(=O)[C@H](C)[C@@H](O)[C@]1(C)O [Ery, erythromycin] | 128 (≈ 93.9 µg/mL) | > 512 | > 512 | > 512 | > 512 | > 512 | > 512 | 256 (≈ 188 µg/mL) | – | – | – | – | MIC (E. coli CCARM 1229): 256 µM (≈ 188 µg/mL); MIC (E. coli CCARM 1238): 256 µM (≈ 188 µg/mL)
4 | CC[C@H](C)[C@H](NC(=O)[C@@H](CCCCN)NC(=O)[C@@H](CCCCN)NC(=O)[C@H](C)NC(=O)[C@H](CC(C)C)NC(=O)[C@@H](CCCCN)NC(=O)[C@@H](CCCCN)NC(=O)[C@H](CC(C)C)NC(=O)[C@H](CCCNC(=N)N)NC(=O)[C@@H](CCCCN)NC(=O)[C@H](C)N)C(=O)N[C@@H](Cc1c[nH]c2ccccc12)C(=O)N[C@H](CCCCN)C(=O)N[C@@H](Cc1c[nH]c2ccccc12)C(=O)N[C@H](CCCCN)C(N)=O [HPA3NT3-A2D] (HELM PEPTIDE1{A.[dK].R.L.[dK].[dK].L.A.[dK].[dK].I.W.[dK].W.[dK].[am]}$$$$V2.0; N-terminus assumed) | – | – | – | – | – | – | – | – | low levels of α-helical structures | low levels of α-helical structures | no change in the MIC | 11.97 | hemolysis against sheep RBCs (in words) [6]: non-hemolysis
5 | CO[C@H]1/C=C/O[C@@]2(C)Oc3c(C)c(O)c4c(O)c(c(/C=N/N5CCN(C)CC5)c(O)c4c3C2=O)NC(=O)/C(C)=C\C=C\[C@H](C)[C@H](O)[C@@H](C)[C@@H](O)[C@@H](C)[C@H](OC(C)=O)[C@@H]1C [rifampin] | – | – | – | – | – | – | – | – | – | – | 8192 fold | – | –
6 | FKRLKKLFKKIWNWK-NH2 [HPA3NT3] | – | – | – | – | – | – | – | – | strongest interaction and α-helical structure | strongest interaction and α-helical structure | – | 20.94 | toxicity against HaCaT cells [7]: 85.1%; hemolytic activity against sheep RBCs [8]: 68.4%

From PMC7460559 (International Journal of Molecular Sciences, 2020)
